Source: patent publication US11975095B2, “Callus lysate comprising high content of callus metabolite and preparation method thereof” (BIOSPECTRUM, INC., priority 2020, dated 2024)

Experiment: Anti-oxidation: DPPH free radical scavenging
Conditions: positive control at 400 μg/ml
Description: The antioxidant activity was evaluated by measuring the ability of scavenging a free radical, DPPH (1,1-diphenyl-2-picrylhydrazyl). DPPH, a radical with a color, was used to directly determine the radical scavenging ability of the sample.
50 μl of each sample of Examples 1 to 13 and Comparative Examples 1 to 5 was mixed with 1 ml of a 100 μM DPPH solution. The resultant mixture was subjected to reaction and incubation at 20° C. (room temperature) at 30 minutes. Then, the amount of the remaining DPPH was determined through the absorbance measurement at 517 nm.
Upon completion of the reaction, the free radical scavenging activity (%) of the sample was calculated according to Equation 3 below. In this regard, the positive control was 400 μg/ml of ascorbic acid, and the blank was purified water. Radical Scavenging Ability (%)={1−(absorbance of sample-added group/absorbance of sample-free group)×100} [Equation 3]

SMILES: O=C1O[C@H]([C@@H](O)CO)C(O)=C1O [Ascorbic acid]
- Free radical scavenging ability: 80.7%
